Data reported in patent publication US12060349B2, “Glucosylceramide synthase inhibitors” (Genzyme Corporation, priority 2012, dated 2024).
Where two headings read alike, the source gives them in different places.

How the values were obtained:
B16 mouse melanoma cells = assay: cell viability in the B16 cell-based assay (Viability, B16 IC50); conditions: concentration causing 50% cell death, values greater than 10 represent a lack of cell death, read-out: Viability, B16 IC50
Summary of the method: (§1)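 Viability readouts were run alongside the GM3 cell-surface assay in the same B16 and C32 cultures. A figure above 10 indicates no cell death.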

C32 human melanoma cells = assay: cell viability in the C32 cell-based assay (Viability, C32 IC50); conditions: concentration causing 50% cell death, values greater than 10 represent a lack of cell death, read-out: Viability, C32 IC50
Summary of the method: as §1

[1] = system: GM3 expression on the cell surface, B16 mouse melanoma cells; assay: cell based phenotypic assay, cell surface GM3 by antibody mediated immunofluorescence, B16 (GM3 B16 IC50); conditions: B16 mouse melanoma cells, 50% inhibition of GM3 expression on the cell surface, read-out: GM3 B16 IC50
Summary of the method: (§2)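 Two melanoma lines, mouse B16 and human C32, were treated and surface GM3 quantified by antibody immunofluorescence for IC50. A parallel viability readout gives the concentration killing 50% of cells, with values over 10 indicating no cell death.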

[2] = system: GM3 expression on the cell surface, C32 human melanoma cells; assay: cell based phenotypic assay, cell surface GM3 by antibody mediated immunofluorescence, C32 (GM3 C32 IC50); conditions: C32 human melanoma cells, 50% inhibition of GM3 expression on the cell surface, read-out: GM3 C32 IC50
Summary of the method: as §2

[3] = target: T1, glucosylceramide synthase (Homo sapiens, UniProt Q16739); assay: microsomal assay measuring conversion of ceramide to glucosylceramide by HPLC (GCS IC50); assay type: biochemical; conditions: concentration causing 50% inhibition of glucosylceramide synthase activity
T1 construct: Microsomes were isolated from A375 human melanoma cells; endogenous in cells; host or cells: A375 human melanoma cells (microsomal fraction, 100,000 g pellet)
T1 sequence (Q16739 1-394): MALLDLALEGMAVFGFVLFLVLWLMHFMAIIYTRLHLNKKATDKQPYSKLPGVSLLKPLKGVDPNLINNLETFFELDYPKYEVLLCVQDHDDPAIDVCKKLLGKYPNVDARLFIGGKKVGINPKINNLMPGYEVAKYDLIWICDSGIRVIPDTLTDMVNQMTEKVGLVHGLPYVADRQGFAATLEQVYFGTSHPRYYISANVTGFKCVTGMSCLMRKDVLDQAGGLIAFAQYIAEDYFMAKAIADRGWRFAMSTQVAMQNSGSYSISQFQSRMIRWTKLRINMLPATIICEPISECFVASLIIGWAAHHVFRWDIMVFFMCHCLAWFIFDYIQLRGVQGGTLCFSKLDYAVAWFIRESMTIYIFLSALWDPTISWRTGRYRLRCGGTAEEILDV
Summary of the method: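 IC50 is the compound concentration halving glucosylceramide synthase activity. Activity was measured in microsomes, with HPLC quantifying glucosylceramide formed from ceramide.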

| SMILES | IC50 (B16 mouse melanoma cells; Mus musculus, B16, B16 cells) | IC50 (C32 human melanoma cells; Homo sapiens, C32, C32 cells) | IC50 ([1]; Mus musculus) | IC50 ([2]; Homo sapiens) | IC50 [3] | IC50 (B16 mouse melanoma cells; B16 cells) | IC50 (C32 human melanoma cells; C32 cells) | IC50 [1] | IC50 [2] |
| --- | --- | --- | --- | --- | --- | --- | --- | --- | --- |
| COC1(C(=O)NC2(C)CCN3CCC2CC3)CCN(c2nccc(-c3ccc(F)cc3)n2)CC1 (centres unmarked) [Example 100, 1-(4-(4-Fluorophenyl)pyrimidin-2-yl)-4-methoxy-N-(4-methyl-1-azabicyclo[3.2.2]nonan-4-yl)piperidine-4-carboxamide] | 1900 nM | 1000 nM | 26.5 nM | 0.109 nM | 3.68 nM | – | – | – | – |
| C[C@@H]1CN(C(=O)NC2(C)CCN3CCC2CC3)C[C@H](C)N1c1nccc(-c2ccccc2)n1 (relative stereo) [Example 147, cis-3,5-Dimethyl-N-(4-methyl-1-azabicyclo[3.2.2]nonan-4-yl)-4-(4-phenylpyrimidin-2-yl)piperazine-1-carboxamide] | 3510 nM | 1000 nM | 96 nM | 1 nM | 5.45 nM | – | – | – | – |
| CC(C)(NC(=O)OC1CCN2CCC1CC2)c1ccc(-c2ccc(C(=O)N3CCC(F)(F)CC3)cc2)cc1 (centres unmarked) [Example 271, 1-Azabicyclo[3.2.2]nonan-4-yl 2-(4′-(4,4-difluoropiperidine-1-carbonyl)biphenyl-4-yl)propan-2-ylcarbamate] | ≥ 10000 nM | 316 nM | 60.7 nM | 2.64 nM | 9.42 nM | – | – | – | – |
| CCC1(NC(=O)NC(C)(C)c2ccc(-c3ccc(OCCOC)cc3)cc2)CN2CCC1CC2 (centres unmarked) [Example 159, 1-(3-Ethylquinuclidin-3-yl)-3-(2-(4′-(2-methoxyethoxy)-[1,1′-biphenyl]-4-yl)propan-2-yl)urea] | 1000 nM | 1000 nM | 4.46 nM | 0.636 nM | 5.6 nM | – | – | – | – |
| COCCCOc1ccc(-c2ccnc(N3CCC(F)(C(=O)NC4(C)CN5CCC4CC5)CC3)n2)cc1 (centres unmarked) [Example 76, 4-Fluoro-1-(4-(4-(3-methoxypropoxy)phenyl)pyrimidin-2-yl)-N-(3-methylquinuclidin-3-yl)piperidine-4-carboxamide] | 3870 nM | 1000 nM | 58.7 nM | 0.141 nM | 1.34 nM | – | – | – | – |
| CN(C)C(=O)c1ccc(Oc2ccc(C(C)(C)NC(=O)OC3CCN4CCC3CC4)cc2)cc1 (centres unmarked) [Example 286, 1-Azabicyclo[3.2.2]nonan-4-yl 2-(4-(4-(dimethylcarbamoyl)phenoxy)phenyl)propan-2-ylcarbamate] | ≥ 10000 nM | ≥ 10000 nM | 793 nM | 31.6 nM | 437 nM | – | – | – | – |
| CC(C)(NC(=O)NC1(C)CCN2CCC1CC2)c1ccc(Oc2ccc(C(=O)N3CCC(F)(F)CC3)cc2)cc1 (centres unmarked) [Example 302, 1-(2-(4-(4-(4,4-Difluoropiperidine-1-carbonyl)phenoxy)phenyl)propan-2-yl)-3-(4-methyl-1-azabicyclo[3.2.2]nonan-4-yl)urea] | ≥ 10000 nM | 1000 nM | 31.7 nM | 1.47 nM | 4.22 nM | – | – | – | – |
| CC1(COc2ccc(-c3ccc(C(C)(C)NC(=O)OC4CCN5CCC4CC5)cc3)cc2)COC1 (centres unmarked) [Example 192, 1-Azabicyclo[3.2.2]nonan-4-yl (2-(4′-((3-methyloxetan-3-yl)methoxy)-[1,1′-biphenyl]-4-yl)propan-2-yl)carbamate] | 5840 nM | 1000 nM | 81.6 nM | 1.86 nM | 5.69 nM | – | – | – | – |
| C[C@H]1CN(C(=O)NC2(C)CCN3CCC2CC3)CCN1c1nccc(-c2ccccc2)n1 (single isomer, unassigned) [Example 140] | – | – | – | – | 46.9 nM | 6490 nM | 3160 nM | 9080 nM | 574 nM |
| CCC1(NC(=O)NC(C)(C)c2ccc(-c3ccc(C(=O)N4CC(F)(F)C4)cc3)cc2)CN2CCC1CC2 (centres unmarked) [Example 275, 1-(2-(4′-(3,3-Difluoroazetidine-1-carbonyl)biphenyl-4-yl)propan-2-yl)-3-(3-ethylquinuclidin-3-yl)urea] | ≥ 10000 nM | 1000 nM | 55.4 nM | 2.92 nM | 75.6 nM | – | – | – | – |
